Reference: USRE49351E1, “Cytoprotective agent” (Biogen MA Inc., priority 2009, dated 2023)

Assay: modified H-ORAC (mH-ORAC) assay
Type: biochemical
Conditions: acetone solution, acetone final concentration 1.25%
Protocol: To study the free radical scavenging activity of a triprenyl phenol compound, the following H-ORAC (hydrophilic oxygen radical absorbance capacity) assay, and modified H-ORAC (mH-ORAC) assay were conducted.
SMTP compounds evaluated by H-ORAC were used respectively in a form of a sodium salt aqueous solution, and the compounds evaluated by mH-ORAC were used respectively in a form of an acetone solution.
In H-ORAC a test compound was diluted appropriately with a buffer solution (75 mM phosphate buffer solution, pH 7.4) and used for measurement. In mH-ORAC a test compound was diluted appropriately by a 50% (v/v) acetone solution, prepared by diluting an acetone solution with water, to prepare a solution of 40-fold the final concentration. […] As for the reference material Trolox, 500 μM/buffer solution was diluted appropriately with a buffer solution.
To a 96-well microplate (transparent, flat bottom, black wall) 50 μL of a test compound solution or a Trolox solution was placed, and additionally 100 μL of a fluorescein 140 nM/buffer solution as a fluorescent substance was added (final concentration 70 nM), followed by incubation at 37° C. for […].
As a free radical generator, 50 μL of a 48 mM/buffer solution of 2,2′-azobis(amidinopropane)dihydrochloride was added (final concentration 12 mM), and fluorescence intensity at fluorescence wavelength of 535 nm with excitation wavelength of 485 nm was measured at 2 min intervals for 90 min. The calibration curve was prepared between the Trolox final concentrations of 5 to 15 μM. The measurement was conducted by changing the concentration with n=3, and plotted on a diagram with time on the abscissa and the fluorescence intensity on the ordinate. Therewith evaluation was made using the value obtained by reducing the area under the curve for the blank from the area under the curve for the sample. The result was expressed as an equivalent to Trolox.

## CC(C)=CCC/C(C)=C/CC[C@@]1(C)Oc2c(c(O)cc3c2CN(CCC[C@@H](C(=O)O)N2Cc4c(cc(O)c5c4O[C@](C)(CC/C=C(\C)CCC=C(C)C)[C@@H](O)C5)C2=O)C3=O)C[C@@H]1O [SMTP-7]
  free radical scavenging activity, Trolox equivalent: 1.82 ± 0.27 molTE/mol
